This test addresses T1, MAGL (Homo sapiens, UniProt Q99685).
T1 sequence (Q99685 1-303): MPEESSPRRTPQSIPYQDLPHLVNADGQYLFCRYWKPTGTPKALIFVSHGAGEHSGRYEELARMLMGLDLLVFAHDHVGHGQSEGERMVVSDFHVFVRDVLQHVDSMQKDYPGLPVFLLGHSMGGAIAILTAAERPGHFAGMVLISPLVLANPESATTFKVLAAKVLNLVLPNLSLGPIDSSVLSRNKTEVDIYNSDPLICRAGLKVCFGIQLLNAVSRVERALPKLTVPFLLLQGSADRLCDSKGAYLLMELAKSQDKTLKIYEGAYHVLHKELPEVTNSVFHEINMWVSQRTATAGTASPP
The experiment in a line: 2-AG assay (MAGL inhibitory activity; hydrolysis of 2-arachidonoylglycerol to arachidonic acid followed by mass spectrometry). The settings on record: 15 min preincubation at RT, 8 μM 2-arachidonoylglycerol, 30 min at RT, RapidFire MS readout. The class given is biochemical. The method, boiled down:
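Compounds (final 12.5 μM to […], 3-fold steps) preincubated 15 min at RT with MAGL ([…]) in 50 mM TRIS, 1 mM EDTA, Tween buffer. Reaction started with 8 μM 2-arachidonoylglycerol, run 30 min at RT, quenched with ACN containing d8-arachidonic acid. Arachidonic acid quantified by RapidFire SPE-triple quadrupole MS (negative ESI), activity from arachidonic acid/d8 ratio.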

SMILES strings stand for the structures.

For `COc1cccc(C(=O)N2CCN3C[C@H](c4cc(Cl)c[nH]c4=O)OC[C@@H]3C2)c1Cl` [Example 74, 3-[(3S,9aS)-8-(2-chloro-3-methoxy-benzoyl)-3,4,6,7,9,9a-hexahydro-1H-pyrazino[2,1-c][1,4]oxazin-3-yl]-5-chloro-1H-pyridin-2-one], the IC50 (in general, the concentration that inhibits the measured activity by half) was 2.21 µM. In the case of `COc1cccc(C(=O)N2CCN3C[C@@](O)(c4ccccc4Cl)OC[C@@H]3C2)c1Cl` [Example 150, [(3R,9aS)-3-(2-chlorophenyl)-3-hydroxy-1,4,6,7,9,9a-hexahydropyrazino[2,1-c][1,4]oxazin-8-yl]-(2-chloro-3-methoxy-phenyl)methanone], inhibition was half-maximal at 0.546 µM (IC50). The figure for `COc1cccc(C(=O)N2CCN3C[C@H](c4cc(Cl)ccn4)OC[C@@H]3C2)c1Cl` [Example 90, [(3R,9aS)-3-(4-chloro-2-pyridyl)-3,4,6,7,9,9a-hexahydro-1H-pyrazino[2,1-c][1,4]oxazin-8-yl]-(2-chloro-3-methoxy-phenyl)methanone] is 2.31 µM. As to `O=C(c1cccc(N2CC3(COC3)C2)c1Cl)N1CCN2C[C@@H](c3ccc(F)c(Cl)c3)OC[C@@H]2C1` [Example 42, [(3R,9aS)-3-(3-chloro-4-fluoro-phenyl)-3,4,6,7,9,9a-hexahydro-1H-pyrazino[2,1-c][1,4]oxazin-8-yl]-[2-chloro-3-(2-oxa-6-azaspiro[3.3]heptan-6-yl)phenyl]methanone], the IC50 is 0.0486 µM.

`O=C(c1cccc(N2CCOCC2)c1Cl)N1CCN2C[C@@H](c3ccc(F)c(Cl)c3)OC[C@@H]2C1` [Example 43, [(3R,9aS)-3-(3-chloro-4-fluoro-phenyl)-3,4,6,7,9,9a-hexahydro-1H-pyrazino[2,1-c][1,4]oxazin-8-yl]-(2-chloro-3-morpholino-phenyl)methanone]: the half-maximal inhibitory concentration (IC50) was found to be 0.12 µM. `Cc1n[nH]c2ccc(C(=O)N3CCN4C[C@@H](c5ccc(F)c(Cl)c5)OC[C@@H]4C3)c(Cl)c12` [Example 41, [(3R,9aS)-3-(3-chloro-4-fluoro-phenyl)-3,4,6,7,9,9a-hexahydro-1H-pyrazino[2,1-c][1,4]oxazin-8-yl]-(4-chloro-3-methyl-1H-indazol-5-yl)methanone] returned an IC50 of 0.0638 µM. `COc1cccc(C(=O)N2CCN3C[C@H](c4ccc(Br)cn4)OC[C@H]3C2)c1Cl` (racemic) [Example 53, (2-chloro-3-methoxy-phenyl)-[rac-(3R,9aR)-3-(5-bromo-2-pyridyl)-3,4,6,7,9,9a-hexahydro-1H-pyrazino[2,1-c][1,4]oxazin-8-yl]methanone]: the 50% inhibitory concentration (IC50) came out at 0.076 µM.

As to `COc1cccc(C(=O)N2CCN3C[C@H](c4sc(C)nc4C)OC[C@H]3C2)c1Cl` (single isomer, unassigned) [Example 52], inhibition was half-maximal at 1.38 µM (IC50).

With `COc1cccc(C(=O)N2CCN3C[C@@](O)(c4cc(Cl)cc(Br)c4)OC[C@@H]3C2)c1Cl` [Example 125, [(3R,9aS)-3-(3-bromo-5-chloro-phenyl)-3-hydroxy-1,4,6,7,9,9a-hexahydropyrazino[2,1-c][1,4]oxazin-8-yl]-(2-chloro-3-methoxy-phenyl)methanone], the IC50 stood at 0.0828 µM.

Regarding `O=C(c1cccc(-c2n[nH]c(=O)o2)c1Cl)N1CCN2C[C@@H](c3ccc(F)c(Cl)c3)OC[C@@H]2C1` [Example 134, 5-[3-[(3R,9aS)-3-(3-chloro-4-fluoro-phenyl)-3,4,6,7,9,9a-hexahydro-1H-pyrazino[2,1-c][1,4]oxazine-8-carbonyl]-2-chloro-phenyl]-3H-1,3,4-oxadiazol-2-one], the half-maximal inhibitory concentration (IC50) was 0.144 µM.

Turning to `COc1cccc(C(=O)N2CCN3C[C@@H](c4cc(C(F)(F)F)c(F)cn4)OC[C@@H]3C2)c1Cl` [Example 101, (2-chloro-3-methoxy-phenyl)-[(3S,9aS)-3-[5-fluoro-4-(trifluoromethyl)-2-pyridyl]-3,4,6,7,9,9a-hexahydro-1H-pyrazino[2,1-c][1,4]oxazin-8-yl]methanone], inhibition was half-maximal at 0.133 µM (IC50). The value for `Cc1cccnc1-c1cccc(C(=O)N2CCN3C[C@@H](c4ccc(F)c(Cl)c4)OC[C@@H]3C2)c1Cl` [Example 37, [(3R,9aS)-3-(3-chloro-4-fluoro-phenyl)-3,4,6,7,9,9a-hexahydro-1H-pyrazino[2,1-c][1,4]oxazin-8-yl]-[2-chloro-3-(3-methyl-2-pyridyl)phenyl]methanone] was 0.277 µM; that for `O=C(c1cccc(-c2cnn[nH]2)c1Cl)N1CCN2C[C@@H](c3ccc(F)c(Cl)c3)OC[C@@H]2C1` [Example 44, [(3R,9aS)-3-(3-chloro-4-fluoro-phenyl)-3,4,6,7,9,9a-hexahydro-1H-pyrazino[2,1-c][1,4]oxazin-8-yl]-[2-chloro-3-(1H-triazol-5-yl)phenyl]methanone] was 0.05 µM; that for `N#Cc1cc(-c2cccc(C(=O)N3CCN4C[C@@](O)(c5ccc(F)c(F)c5)OC[C@@H]4C3)c2Cl)c[nH]1` [Example 113, 4-[3-[(3R,9aS)-3-(3,4-difluorophenyl)-3-hydroxy-1,4,6,7,9,9a-hexahydropyrazino[2,1-c][1,4]oxazine-8-carbonyl]-2-chloro-phenyl]-1H-pyrrole-2-carbonitrile] was 0.0076 µM. The figure for `COc1cc(OC)c(Cl)c(C(=O)N2CCN3C[C@H](c4ccc(F)c(Cl)c4)OC[C@@H]3C2)c1` [Example 17, [(3S,9aS)-3-(3-chloro-4-fluoro-phenyl)-3,4,6,7,9,9a-hexahydro-1H-pyrazino[2,1-c][1,4]oxazin-8-yl]-(2-chloro-3,5-dimethoxy-phenyl)methanone] is 4.57 µM; for `COc1cccc(C(=O)N2CCN3C[C@@H](c4cncc(Cl)c4)OC[C@@H]3C2)c1Cl` (racemic) [Example 59, (2-chloro-3-methoxy-phenyl)-[rac-(3R,9aS)-3-(5-chloro-3-pyridyl)-3,4,6,7,9,9a-hexahydro-1H-pyrazino[2,1-c][1,4]oxazin-8-yl]methanone] it is 0.544 µM. The value for `C/C=C/c1cc([C@@H]2CN3CCN(C(=O)c4cccc(OC)c4Cl)C[C@H]3CO2)ccc1F` (racemic) [Example 10, (2-chloro-3-methoxy-phenyl)-[(3R,9aS)-3-[4-fluoro-3-[rac-(E)-prop-1-enyl]phenyl]-3,4,6,7,9,9a-hexahydro-1H-pyrazino[2,1-c][1,4]oxazin-8-yl]methanone] was 0.179 µM; that for `COc1cccc(C(=O)N2CCN3C[C@@H](c4ccc(F)c(Cl)c4)OC[C@@H]3C2)c1F` [Example 9, [(3R,9aS)-3-(3-chloro-4-fluoro-phenyl)-3,4,6,7,9,9a-hexahydro-1H-pyrazino[2,1-c][1,4]oxazin-8-yl]-(2-fluoro-3-methoxy-phenyl)methanone] was 0.0856 µM; that for `COc1cccc(C(=O)N2CCN3C[C@@H](c4cc(Br)c(Cl)cn4)OC[C@@H]3C2)c1Cl` [Example 107, (2-chloro-3-methoxy-phenyl)-[(3S,9aS)-3-[5-chloro-4-bromo-2-pyridyl]-3,4,6,7,9,9a-hexahydro-1H-pyrazino[2,1-c][1,4]oxazin-8-yl]methanone] was 0.0126 µM. Consider `N#Cc1cc(-c2cc(F)cc(C(=O)N3CCN4C[C@H](c5c[nH]c(C(F)(F)F)cc5=O)OC[C@@H]4C3)c2Cl)c[nH]1` [Example 151, 4-[3-[(3S,9aS)-3-[4-oxo-6-(trifluoromethyl)-1H-pyridin-3-yl]-3,4,6,7,9,9a-hexahydro-1H-pyrazino[2,1-c][1,4]oxazine-8-carbonyl]-2-chloro-5-fluoro-phenyl]-1H-pyrrole-2-carbonitrile], for which half-maximal inhibition (IC50) required 0.575 µM.

(Values after patent publication US12662490B2, “Heterocyclic compounds” (Hoffmann-La Roche Inc., priority 2019, dated 2026).)
